Results reported in patent US10905120B2, “ABA receptor agonists that modulate transpiration” (The Regents of the University of California, priority 2016, dated 2021).
Values after ≈ are worked out from the molar mass of the structure shown. Where two headings read alike, the source gives them in different places.

Assays:
[1] = target: T1, PYR1 (Arabidopsis thaliana, UniProt O49686); assay: PP2C inhibition assay, recombinant PYR1 receptor; assay type: biochemical
T1 sequence (O49686 1-191): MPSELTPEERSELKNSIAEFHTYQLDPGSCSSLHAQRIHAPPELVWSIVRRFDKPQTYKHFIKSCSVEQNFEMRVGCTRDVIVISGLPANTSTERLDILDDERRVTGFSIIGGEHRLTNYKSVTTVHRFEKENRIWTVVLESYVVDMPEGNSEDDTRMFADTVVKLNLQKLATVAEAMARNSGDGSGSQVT
T1 sequence (Q9CAJ0 23-511 partner): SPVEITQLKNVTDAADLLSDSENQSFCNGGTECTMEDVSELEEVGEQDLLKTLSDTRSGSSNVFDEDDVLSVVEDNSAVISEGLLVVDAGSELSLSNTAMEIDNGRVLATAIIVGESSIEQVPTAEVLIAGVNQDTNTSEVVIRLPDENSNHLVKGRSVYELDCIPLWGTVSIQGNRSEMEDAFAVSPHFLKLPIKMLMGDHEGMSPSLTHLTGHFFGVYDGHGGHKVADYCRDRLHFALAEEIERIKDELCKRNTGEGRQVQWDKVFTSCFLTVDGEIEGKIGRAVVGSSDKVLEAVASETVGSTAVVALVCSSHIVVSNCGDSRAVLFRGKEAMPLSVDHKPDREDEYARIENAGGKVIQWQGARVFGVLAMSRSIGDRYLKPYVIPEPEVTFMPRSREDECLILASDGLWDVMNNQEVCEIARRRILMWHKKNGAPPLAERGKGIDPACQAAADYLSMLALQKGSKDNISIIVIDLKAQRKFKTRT
Method: (§1) Reactions were started by adding 40 μL of a reaction solution containing 25 mM 4-nitrophenyl phosphate in assay buffer, after which absorbance measurements were immediately collected using a 405 nm on Wallac plate reader. Reactions contained 100 nM PP2C and 200 nM PYR/PYL proteins. […] The dose response data was fitted to a log (inhibitor) vs response-(variable slope) model using non-linear regression to infer the IC50 values using Graph Pad Prism 6.0.

[2] = target: T2, PYL2 (Arabidopsis thaliana, UniProt O80992); assay: PP2C inhibition assay, recombinant PYL2 receptor; assay type: biochemical
T2 sequence (O80992 1-190): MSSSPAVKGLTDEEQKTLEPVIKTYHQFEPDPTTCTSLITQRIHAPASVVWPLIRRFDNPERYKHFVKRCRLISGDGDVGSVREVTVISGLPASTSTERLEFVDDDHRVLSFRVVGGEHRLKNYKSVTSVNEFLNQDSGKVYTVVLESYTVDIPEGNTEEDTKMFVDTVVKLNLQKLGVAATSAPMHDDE
T2 sequence (Q9CAJ0 23-511 partner): T1 sequence (Q9CAJ0 23-511 partner)
Method: as §1

[3] = test system: Arabidopsis thaliana seeds; assay: Germination assay; assay type: in vivo; settings: Minimal Inhibitory Concentration, 3 d in darkness after 4 d stratification
Method: Germination experiments were performed with Arabidopsis thaliana seeds of wildtype Col0, Ler, or mutant backgrounds.
Seeds were sterilized by 30 sec incubation in 70% ethanol solution followed by a 5 min […] (while vigorously shaking) in a bleach-Tween solution. Afterwards, the sterilizing solutions were removed, and five washes were performed with sterile distilled water. To enhance complete removal of the solutions between the different steps, short centrifuge spins were performed. Finally, the now surface-sterilized seeds were re-suspended in an aseptic 0.1% agar solution to simplify distribution over multiwall plates. One drop of the solution contained on average 20-30 seeds.
In the multiwell plates, seeds were plated onto 0.7% agar Murashige amd Skoog (MS) plant growth medium containing one-half MS salts and 0.5% sucrose containing different concentrations of ABA, quinabactin, or the compound of interest. After 4 d of stratification at 4° C., the plates were transferred to a growth chamber in darkness and allowed to germinate for 3 d before germination was evaluated. The results are shown above in Table 1 and FIGS. 3A and 3B.

[4] = recombinant receptor 200 nM, PP2C 100 nM, 4-nitrophenyl phosphate substrate, absorbance 405 nm, read-out: IC50 PYR1
[5] = recombinant receptor 200 nM, PP2C 100 nM, 4-nitrophenyl phosphate substrate, absorbance 405 nm, read-out: IC50 PYL2

SMILES | IC50 [1] | IC50 [2] | MIC (μM) Germination [3] | IC50 [1, 4] | IC50 [2, 5]
N#Cc1ccc(NS(=O)(=O)Cc2ccc([N+](=O)[O-])cc2)cc1C(F)(F)F [Ligand Q5, N-[4-Cyano-3-(trifluoromethyl)phenyl]-1-(4-nitrophenyl)methanesulfonamide] | 8.24 ± 0.52 µM | > 50 µM | >25 µM | – | –
Cc1ccc(CS(=O)(=O)Nc2cc(C(F)(F)F)c(C#N)cc2[N+](=O)[O-])cc1 [Ligand Q17, N-[4-Cyano-2-nitro-5-(trifluoromethyl)phenyl]-1-(4-methylphenyl) methanesulfonamide] | – | – | >25 µM | > 50 µM | > 50 µM
Cc1cc(NS(=O)(=O)Cc2ccc(Br)cc2F)cc(C)c1C#N [Ligand Q24, 1-(4-Bromo-2-fluorophenyl)-N-(4-cyano-3,5-dimethylphenyl)methanesulfonamide] | 0.188 ± 0.019 µM | 11.9 ± 1.47 µM | 10 µM (≈ 3.97 µg/mL) | – | –
CCCN1C(=O)CCc2cc(NS(=O)(=O)Cc3ccc(C)cc3)ccc21 [QB, Quinabactin, reference compound] | – | – | 3 µM (≈ 1.12 µg/mL) | – | –
N#Cc1ccc(NS(=O)(=O)Cc2ccc(Br)cc2)cc1C(F)(F)F [Ligand Q7, 1-(4-Bromophenyl)-N-[4-cyano-3-(trifluoromethyl)phenyl]methanesulfonamide] | 0.326 ± 0.0077 µM | 31.4 ± 3.4 µM | 10 µM (≈ 4.19 µg/mL) | – | –
Cc1cc(NS(=O)(=O)Cc2ccc(C(F)(F)F)cc2)ccc1C#N [Ligand Q13, N-(4-Cyano-3-methylphenyl)-1-[4-(trifluoromethyl)phenyl]methanesulfonamide] | – | – | >25 µM | 1.1 ± 0.183 µM | > 50 µM
Cc1ccc(CS(=O)(=O)Nc2cc(C)c(C#N)c(C)c2)cc1 [Ligand Q15, N-(4-Cyano-3,5-dimethylphenyl)-1-(4-methylphenyl)methanesulfonamide] | – | – | 10 µM (≈ 3.14 µg/mL) | 0.098 ± 0.007 µM | 2.58 ± 0.222 µM
Cc1ccc(CS(=O)(=O)Nc2cc(C)c(C#N)c(C3CC3)c2)cc1 [Ligand Q28, N-(4-Cyano-3-cyclopropyl-5-methylphenyl)-1-(4-methylphenyl) methanesulfonamide] | – | – | 10 µM (≈ 3.4 µg/mL) | 0.21 ± 0.036 µM | 1.66 ± 0.046 µM
Cc1ccc(CS(=O)(=O)Nc2ccc(C#N)c(Cl)c2)cc1 [Ligand Q2, N-(3-Chloro-4-cyanophenyl)-1-(4-methylphenyl)methanesulfonamide] | 3.91 ± 0.122 µM | > 50 µM | 25 µM (≈ 8.02 µg/mL) | – | –
Cc1cc(NS(=O)(=O)Cc2ccc(C3CC3)cc2)cc(C)c1C#N [Ligand Q23, N-(4-Cyano-3,5-dimethylphenyl)-1-(4-cyclopropylphenyl)methanesulfonamide] | – | – | 10 µM (≈ 3.4 µg/mL) | 0.203 ± 0.025 µM | 20.1 ± 1.46 µM
CCCN(C(C)=O)c1ccc(NS(=O)(=O)Cc2ccc(C)cc2)cc1C(F)(F)F [Ligand Q11, N-[4-{[(4-Methylbenzyl)sulfonyl]amino}-2-(trifluoromethyl)phenyl]-N-propylacetamide] | – | – | >25 µM | > 50 µM | > 50 µM
Cc1ccc(CS(=O)(=O)Nc2cc(C(F)(F)F)c(C#N)c(C(F)(F)F)c2)cc1 [Ligand Q14, N-(4-Cyano-3,5-(bistrifluoromethyl)phenyl)-1-(4-methylphenyl) methanesulfonamide] | – | – | >25 µM | > 50 µM | > 50 µM
Cc1ccc(CS(=O)(=O)Nc2cc(C(F)(F)F)c(C#N)cc2N)cc1 [Ligand Q18, N-[2-Amino-4-cyano-5-(trifluoromethyl)phenyl]-1-(4-methylphenyl) methanesulfonamide] | – | – | >25 µM | > 50 µM | > 50 µM
N#Cc1ccc(NS(=O)(=O)Cc2ccc(C(F)(F)F)cc2)cc1C(F)(F)F [Ligand Q9, N-[4-Cyano-3-(trifluoromethyl)phenyl]-1-[4-(trifluoromethyl)phenyl]methanesulfonamide] | 3.4 ± 0.27 µM | > 50 µM | 10 µM (≈ 4.08 µg/mL) | – | –
